Data as given in US10618918B2, “Substituted boronic acids as antimicrobials” (priority 2015, dated 2020).

Experiments:
KP1004 KPC-2 [1] = assay: Biapenem potentiation (MPC@1), strain KP1004 KPC-2; type: cell-based; conditions: minimum BLI concentration inhibiting growth with biapenem 1 μg/mL; tested up to 40 μg/mL
Experimental: (§1) Biapenem was present in the test medium at 1 μg/mL. […] Table 3 summarizes the BLI potency of biapenem potentiation (MPC@1) for two strains overexpressing class A (KPC) and class D (OXA-48) carbapenemases. Biapenem MIC for each strain is also shown.

KP1005 CTX-M-14 = assay: Tigemonam potentiation (MPC@4), strain KP1005 CTX-M-14
KP1010 SHV-12 = assay: Aztreonam potentiation (MPC@4), strain KP1010 SHV-12
ec308 SHV-5 = assay: Aztreonam potentiation (MPC@4), strain ec308 SHV-5; conditions: minimum BLI concentration inhibiting growth with aztreonam 4 μg/mL; tested up to 40 μg/mL
PAM1154/KPC-2 = assay: Biapenem potentiation MPC64 in PAM1154/KPC-2 (efflux deficient, lacks MexAB-OprM); type: cell-based, Pseudomonas aeruginosa
Experimental: (§2) Efflux of BLIs from Pseudomonas aeruginosa by the MexAB-OprM efflux pump was also evaluated. The plasmid expressing the gene encoding KPC-2 was introduced into two strains of P. aeruginosa, PAM1032 and PAM 1154 that overexpressed or lacked MexAB-OprM, respectively. […] Potency of BLIs to potentiate biapenem in these strains was determined.

ECL1002 = assay: Aztreonam potentiation (MPC@4), strain ECL1002; conditions: minimum BLI concentration inhibiting growth with aztreonam 4 μg/mL; tested up to 40 μg/mL
KP1009 CTX-M-15 = assay: Aztreonam potentiation (MPC@4), strain KP1009 CTX-M-15; conditions: minimum BLI concentration inhibiting growth with aztreonam 4 μg/mL; tested up to 40 μg/mL
ec302 TEM-10 = assay: Aztreonam potentiation (MPC@4), strain ec302 TEM-10; conditions: minimum BLI concentration inhibiting growth with aztreonam 4 μg/mL; tested up to 40 μg/mL
EC1010 CMY-6 = assay: Aztreonam potentiation (MPC@4), strain EC1010 CMY-6
KP1086 OXA-48 = assay: Biapenem potentiation (MPC@1), strain KP1086 OXA-48; type: cell-based; conditions: minimum BLI concentration inhibiting growth with biapenem 1 μg/mL; tested up to 40 μg/mL
Experimental: as §1

KP1004 KPC-2 [2] = assay: Aztreonam potentiation (MPC@4), strain KP1004 KPC-2
AB1054 OXA-23 = assay: Meropenem potentiation (MPC@8), strain AB1054 OXA-23; type: cell-based, Acinetobacter baumannii
PAM1032/KPC-2 = assay: Biapenem potentiation MPC64 in PAM1032/KPC-2 (efflux proficient, overexpresses MexAB-OprM); type: cell-based, Pseudomonas aeruginosa
Experimental: as §2

[3] = molecular target: purified class A, C and D enzymes (β-lactamases) (Enterobacter cloacae, UniProt P05364); assay: biochemical; type: biochemical
[4] = molecular target: T1, purified class A, C and D enzymes (β-lactamases) (UniProt P0AD64, L31Q/G234S/E235K, species not given); assay: biochemical; type: biochemical; conditions: read-out: Ki (SHV-12, NCF); purified SHV-12; nitrocefin (NCF) as reporter substrate
T1 construct: Ki (SHV-12, NCF), uM; other: purified SHV-12; nitrocefin (NCF) as reporter substrate
T1 sequence (P0AD64 1-286 L31Q/G234S/E235K): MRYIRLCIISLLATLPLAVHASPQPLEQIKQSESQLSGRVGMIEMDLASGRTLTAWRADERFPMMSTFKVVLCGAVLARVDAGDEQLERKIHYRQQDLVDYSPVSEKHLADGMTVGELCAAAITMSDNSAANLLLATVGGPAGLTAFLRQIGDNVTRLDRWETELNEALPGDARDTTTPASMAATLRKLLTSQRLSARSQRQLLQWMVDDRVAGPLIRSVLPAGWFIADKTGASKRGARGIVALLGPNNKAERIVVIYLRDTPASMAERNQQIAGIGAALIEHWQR

[5] = molecular target: purified class A, C and D enzymes (β-lactamases) (Klebsiella pneumoniae, UniProt Q6XEC0); assay: biochemical; type: biochemical
[6] = molecular target: purified class A, C and D enzymes (β-lactamases) (Klebsiella pneumoniae, UniProt Q9F663); assay: biochemical; type: biochemical
[7] = molecular target: T2, purified class A, C and D enzymes (β-lactamases) (Pseudomonas aeruginosa, UniProt P24735); assay: biochemical; type: biochemical
T2 construct: rows headed: Ki (Pa-AmpC, NCF), uM; other: purified Pa-AmpC; nitrocefin (NCF) as reporter substrate

[8] = molecular target: purified class A, C and D enzymes (β-lactamases) (Escherichia coli, UniProt Q9L5C7); assay: biochemical; type: biochemical
biochemical = type: biochemical
AB1053 OXA-72 = assay: Meropenem potentiation (MPC@8), strain AB1053 OXA-72; type: cell-based, Acinetobacter baumannii; conditions: minimum BLI concentration inhibiting growth with meropenem 8 μg/mL; tested up to 20 μg/mL

T2 sequence (P24735 whole entry): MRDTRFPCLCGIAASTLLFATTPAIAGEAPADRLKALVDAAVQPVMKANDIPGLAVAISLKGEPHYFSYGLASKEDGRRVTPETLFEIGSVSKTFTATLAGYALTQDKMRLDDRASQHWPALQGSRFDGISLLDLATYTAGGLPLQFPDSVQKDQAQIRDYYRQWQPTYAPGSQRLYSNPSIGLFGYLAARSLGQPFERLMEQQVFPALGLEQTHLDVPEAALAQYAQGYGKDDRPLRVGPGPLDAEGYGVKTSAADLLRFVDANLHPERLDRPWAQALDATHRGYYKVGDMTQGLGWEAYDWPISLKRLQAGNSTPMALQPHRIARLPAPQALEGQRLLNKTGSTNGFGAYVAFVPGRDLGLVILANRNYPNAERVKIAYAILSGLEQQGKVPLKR
Chain of purified class A, C and D enzymes (β-lactamases) (Escherichia coli, UniProt Q9L5C7) (Q9L5C7 entry or part of it): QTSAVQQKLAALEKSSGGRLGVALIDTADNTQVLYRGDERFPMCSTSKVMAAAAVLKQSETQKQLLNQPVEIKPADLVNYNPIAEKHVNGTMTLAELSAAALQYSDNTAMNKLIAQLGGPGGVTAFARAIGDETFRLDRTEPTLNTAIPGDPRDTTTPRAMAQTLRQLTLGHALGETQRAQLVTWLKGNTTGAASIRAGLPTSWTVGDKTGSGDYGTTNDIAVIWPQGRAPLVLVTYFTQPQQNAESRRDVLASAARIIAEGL
Chain of purified class A, C and D enzymes (β-lactamases) (Enterobacter cloacae, UniProt P05364) (P05364 21-381): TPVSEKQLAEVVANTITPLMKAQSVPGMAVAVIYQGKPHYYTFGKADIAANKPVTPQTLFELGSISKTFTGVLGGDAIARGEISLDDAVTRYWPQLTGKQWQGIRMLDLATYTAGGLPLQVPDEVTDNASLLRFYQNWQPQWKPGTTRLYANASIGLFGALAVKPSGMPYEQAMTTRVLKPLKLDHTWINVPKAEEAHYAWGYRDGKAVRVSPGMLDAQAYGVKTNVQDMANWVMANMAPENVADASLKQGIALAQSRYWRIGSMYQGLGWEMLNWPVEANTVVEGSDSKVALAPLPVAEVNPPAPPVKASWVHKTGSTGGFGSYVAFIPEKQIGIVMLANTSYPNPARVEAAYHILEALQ

Structure (SMILES) | BPM MPC1 KP1004 KPC-2 (KP1004 KPC-2 [1]) | TIG MPC4 CTX-M-14 KP1005 (KP1005 CTX-M-14) | AZT MPC4 SHV-12 KP1010 (KP1010 SHV-12) | AZT MPC4 SHV-5 ec308 (ec308 SHV-5) | PAM1154/KPC-2 Biapenem MPC64 (PAM1154/KPC-2) | AZT MPC4 ECL1002 (ECL1002) | AZT MPC4 CTX-M-15 KP1009 (KP1009 CTX-M-15) | AZT MPC4 TEM-10 ec302 (ec302 TEM-10) | AZT MPC4 CMY-6 EC1010 (EC1010 CMY-6) | BPM MPC1 OXA-48 KP1086 (KP1086 OXA-48) | AZT MPC4 KPC-2 KP1004 (KP1004 KPC-2 [2]) | MPM MPC8 AB1054 OXA-23 (AB1054 OXA-23) | PAM1032/KPC-2 Biapenem MPC64 (PAM1032/KPC-2) | Ki (P99, NCF), uM [3] | Ki (OXA-48, NCF), uM [5] | Ki (KPC-2, NCF), uM [6] | Ki [7] [nM] | Ki (CTX-M-14, NCF), uM [8] | Ki (biochemical) [nM] | MPM MPC8 AB1053 OXA-72 (AB1053 OXA-72) | further results
COc1ccc2c(c1C(=O)[O-])O[B-](O)(O)CC2.[Na+].[Na+] [Compound 7, DISODIUM; 4,4-DIHYDROXY-8-METHOXY-5-OXA-4-BORANUIDABICYCLO[4.4.0]DECA-1(6),7,9-TRIENE-7-CARBOXYLATE] | X (X = MPC@1 ≤ 5 μg/mL) | X (key: X = MPC@4 ≤ 5 μg/mL; Y = 5 μg/mL < MPC@4 ≤ 20 μg/mL; Z = MPC@4 > 20 μg/mL) | X (key: X = MPC@4 ≤ 5 μg/mL; Y = 5 μg/mL < MPC@4 ≤ 20 μg/mL; Z = MPC@4 > 20 μg/mL) | X (X = MPC@4 ≤ 5 μg/mL) | 0.6 | X (X = MPC@4 ≤ 5 μg/mL) | X (X = MPC@4 ≤ 5 μg/mL) | X (X = MPC@4 ≤ 5 μg/mL) | X (key: X = MPC@4 ≤ 5 μg/mL; Y = 5 μg/mL < MPC@4 ≤ 20 μg/mL; Z = MPC@4 > 20 μg/mL) | X (X = MPC@1 ≤ 5 μg/mL) | X (key: X = MPC@4 ≤ 5 μg/mL; Y = 5 μg/mL < MPC@4 ≤ 20 μg/mL; Z = MPC@4 > 20 μg/mL) | X (key: X = MPC@1 ≤ 5 μg/mL; Y = 5 μg/mL < MPC@1 ≤ 20 μg/mL; Z = MPC@1 > 20 μg/mL) | 2.5 | X (key: X = Ki ≤ 0.1 μM; Y = 0.1 μM < Ki ≤ 1 μM; Z = Ki > 1 μM) | X (key: X = Ki ≤ 0.1 μM; Y = 0.1 μM < Ki ≤ 1 μM; Z = Ki > 1 μM) | X (key: X = Ki ≤ 0.1 μM; Y = 0.1 μM < Ki ≤ 1 μM; Z = Ki > 1 μM) | < 100 | X (key: X = Ki ≤ 0.1 μM; Y = 0.1 μM < Ki ≤ 1 μM; Z = Ki > 1 μM) | < 100 | X (X = MPC@1 ≤ 5 μg/mL) | Ki [4]: < 100 nM
O=C([O-])c1c(F)ccc2c1O[B-](O)(O)CC2.[Na+].[Na+] [Compound 8, DISODIUM; 8-FLUORO-4,4-DIHYDROXY-5-OXA-4-BORANUIDABICYCLO[4.4.0]DECA-1(6),7,9-TRIENE-7-CARBOXYLATE] | X (X = MPC@1 ≤ 5 μg/mL) | X (key: X = MPC@4 ≤ 5 μg/mL; Y = 5 μg/mL < MPC@4 ≤ 20 μg/mL; Z = MPC@4 > 20 μg/mL) | X (key: X = MPC@4 ≤ 5 μg/mL; Y = 5 μg/mL < MPC@4 ≤ 20 μg/mL; Z = MPC@4 > 20 μg/mL) | X (X = MPC@4 ≤ 5 μg/mL) | 0.6 | X (X = MPC@4 ≤ 5 μg/mL) | X (X = MPC@4 ≤ 5 μg/mL) | X (X = MPC@4 ≤ 5 μg/mL) | X (key: X = MPC@4 ≤ 5 μg/mL; Y = 5 μg/mL < MPC@4 ≤ 20 μg/mL; Z = MPC@4 > 20 μg/mL) | X (X = MPC@1 ≤ 5 μg/mL) | X (key: X = MPC@4 ≤ 5 μg/mL; Y = 5 μg/mL < MPC@4 ≤ 20 μg/mL; Z = MPC@4 > 20 μg/mL) | X (key: X = MPC@1 ≤ 5 μg/mL; Y = 5 μg/mL < MPC@1 ≤ 20 μg/mL; Z = MPC@1 > 20 μg/mL) | 5 | X (key: X = Ki ≤ 0.1 μM; Y = 0.1 μM < Ki ≤ 1 μM; Z = Ki > 1 μM) | X (key: X = Ki ≤ 0.1 μM; Y = 0.1 μM < Ki ≤ 1 μM; Z = Ki > 1 μM) | X (key: X = Ki ≤ 0.1 μM; Y = 0.1 μM < Ki ≤ 1 μM; Z = Ki > 1 μM) | < 100 | X (key: X = Ki ≤ 0.1 μM; Y = 0.1 μM < Ki ≤ 1 μM; Z = Ki > 1 μM) | < 100 | X (X = MPC@1 ≤ 5 μg/mL) | 
